{"source": "patent US4034082A", "about": "“Method to prevent reproduction in warm-blooded female animals with nonapeptides” (Abbott Laboratories, priority 1976, dated 1977)", "key": {"[1]": {"system": "Adult, female rats, mated", "test": "Prevention of implantation/pregnancy in mated rats (Example 2)", "type": "in vivo, rat", "settings": "10 μg s.c. b.i.d., day 3 to day 6 of gestation; for fate of the implantation sites: sacrificed day 13; for animals having implantation sites: sacrificed day 13, group of 9 (control: 8 of 9 pregnant); for total implantation sites found in the uteri of the group: sacrificed day 13, groups of 8 or 9 (control: 87 implantation and 3 resorbed sites)", "procedure": "Adult, female rats weighing an average of 200 g. were mated and then randomly divided into groups of 8 and 9 rats. In all animals, mating was determined by the presence of sperms in the vaginal opening. In all animals, subcutaneous treatment was started on day 3 of gestation and continued until day 6 with 10 μg of the above compound, b.i.d. in an aqueous vehicle containing 0.1% bovine serum albumin and 0.9% sodium chloride at a concentration of 0.02% (wt./vol.). All animals were sacrificed on day 13 and checked for toxic manifestations, fetuses or viable implants.\nIn the first of four groups (control), the animals received the above vehicle only. […] Upon sacrifice, a total of 87 implantation and 3 resorbed sites was found in the uteri."}, "[2]": {"system": "rats", "test": "Reversal of the anti-implantation effect by exogenous estradiol in treated rats", "type": "in vivo, rat", "settings": "rats treated days 2-6 of gestation, estradiol 0.1 μg s.c. in sesame oil on days 4 and 5; for animals in which implantation takes place when estradiol is co-administered: of 8 animals"}, "[3]": {"system": "Pregnant rabbits", "test": "Fetal viability in pregnant rabbits after a single injection (Example 4)", "type": "in vivo, rabbit", "settings": "single s.c. injection of 12.5 μg/kg on day 14 of gestation, sacrificed day 28 (control: 7 of 8 implants viable)", "procedure": "Pregnant rabbits were given single subcutaneous injections of 12.5 μg/kg of the compounds used in Example 2 by the route and vehicle shown there on day 14 of gestation. […] In all instances, the animals were sacrificed on day 28 of gestation."}}, "data": [{"molecule": "CCNC(=O)[C@@H]1CCCN1C(=O)[C@H](CCCNC(=N)N)NC(=O)[C@H](CC(C)C)NC(=O)[C@@H](Cc1c[nH]c2ccccc12)NC(=O)[C@H](Cc1ccc(O)cc1)NC(=O)[C@H](CO)NC(=O)[C@H](Cc1c[nH]c2ccccc12)NC(=O)[C@H](Cc1c[nH]cn1)NC(=O)[C@@H]1CCC(=O)N1", "note": "[Compound A]", "values": [{"measurement": "fate of the implantation sites", "setting": "[1]", "result": "all resorbed"}, {"measurement": "animals showing no signs of implantation", "setting": "[1]; sacrificed day 13, group of 9", "result": "Seven"}, {"measurement": "animals having implantation sites", "setting": "[1]", "result": "two"}, {"measurement": "total implantation sites found in the uteri of the group", "setting": "[1]", "result": 25}, {"measurement": "viability of embryos when estradiol is co-administered", "setting": "[2]", "result": "substantially only viable embryos"}, {"measurement": "animals in which implantation takes place when estradiol is co-administered", "setting": "[2]", "result": 3}, {"measurement": "viable fetuses per implants (average)", "setting": "[3]", "result": "one viable fetus per 7 implants"}]}, {"molecule": "CCNC(=O)[C@@H]1CCCN1C(=O)[C@H](CCCNC(=N)N)NC(=O)[C@H](CC(C)C)NC(=O)[C@@H](Cc1ccc(O)cc1)NC(=O)[C@H](Cc1ccc(O)cc1)NC(=O)[C@H](CO)NC(=O)[C@H](Cc1c[nH]c2ccccc12)NC(=O)[C@H](Cc1c[nH]cn1)NC(=O)[C@@H]1CCC(=O)N1", "note": "[Compound B]", "values": [{"measurement": "fate of the implantation sites", "setting": "[1]", "result": "all 22 counted sites had been resorbed"}, {"measurement": "animals having implantation sites", "setting": "[1]", "result": 2}, {"measurement": "total implantation sites found in the uteri of the group", "setting": "[1]", "result": 22}, {"measurement": "viability of embryos when estradiol is co-administered", "setting": "[2]", "result": "substantially only viable embryos"}, {"measurement": "animals in which implantation takes place when estradiol is co-administered", "setting": "[2]", "result": 3}, {"measurement": "viable fetuses per implants (average)", "setting": "[3]", "result": "one viable fetus per 7 implants"}]}, {"molecule": "CCNC(=O)[C@@H]1CCCN1C(=O)[C@H](CCCNC(=N)N)NC(=O)[C@H](CC(C)C)NC(=O)[C@@H](Cc1ccccc1)NC(=O)[C@H](Cc1ccc(O)cc1)NC(=O)[C@H](CO)NC(=O)[C@H](Cc1c[nH]c2ccccc12)NC(=O)[C@H](Cc1c[nH]cn1)NC(=O)[C@@H]1CCC(=O)N1", "note": "[Compound C]", "values": [{"measurement": "fate of the implantation sites", "setting": "[1]", "result": "resorbed"}, {"measurement": "total implantation sites found in the uteri of the group", "setting": "[1]", "result": "single"}, {"measurement": "viability of embryos when estradiol is co-administered", "setting": "[2]", "result": "substantially only viable embryos"}, {"measurement": "animals in which implantation takes place when estradiol is co-administered", "setting": "[2]", "result": 3}, {"measurement": "viable fetuses per implants (average)", "setting": "[3]", "result": "one viable fetus per 7 implants"}]}]}
